Common to all, as to assay type: ADME, organism-based
The species entered for data set [1] is Mus musculus. Briefly: Skin irritant activity in SIM mouse ear assessed as irritation unit per ear after 24 hrs. The settings on record: in vivo.
Data set [2] is filed under the species Mus musculus. Kind of data set: Skin irritant activity in NMRI mouse ear assessed as irritancy 50 after 24 hrs. The settings on record: in vivo.
The species entered for data set [3] is Mus musculus. Kind of data set: Skin irritant activity in NMRI mouse ear assessed as irritant dose 50 per ear after 24 hrs. The conditions noted are these: in vivo, topical_or_ocular.

Each structure is given as a SMILES string. A value given as a limit tells only on which side of the number the result lay.

Consider `C/C=C(\C)C(=O)O[C@@H]1[C@@H]2[C@H]([C@H](OC(=O)C(C)CC)[C@H](OC(C)=O)/C(C)=C/[C@@]34O[C@@]3(C[C@H](C)[C@@H]4OC(C)=O)C(=O)[C@@H]1C)C2(C)C` (some centres not stated), for which the Activity in the data set listed under Mus musculus [1] is more than 1000 µg.

As to `C/C=C(\C)C(=O)O[C@@]12C[C@@H](C)[C@@]3(O)[C@@H](C=C(COC(C)=O)C[C@]4(O)C(=O)C(C)=C[C@@H]34)[C@@H]1C2(C)C`, the results for the Activity in the data set filed under Mus musculus [2] and in the data set filed under Mus musculus [3] were 0.8 nmol⁻¹ and 1.2 nmol, respectively.

Regarding `C/C=C(/C)C(=O)O[C@@]12C[C@@H](C)[C@@]3(O)[C@@H](C=C(CO)C[C@]4(O)C(=O)C(C)=C[C@@H]34)[C@@H]1[C@@]2(C)COC(=O)C(C)C`, the Activity turned out to be 4 nmol⁻¹ in the data set listed under Mus musculus [2] and 0.25 nmol in the data set filed under Mus musculus [3].

As to `C/C=C(\C)C(=O)O[C@@]12C[C@@H](C)[C@@]3(O)[C@@H](C=C(CO)C[C@]4(O)C(=O)C(C)=C[C@@H]34)[C@@H]1C2(C)C`, the Activity in the data set filed under Mus musculus [2] is 3.6 nmol⁻¹; in the data set filed under Mus musculus [3] it was 0.28 nmol.

In the case of `CC(=O)OCC1=C[C@H]2[C@@H]3C(C)(C)[C@]3(OC(=O)C(C)C)C[C@@H](C)[C@]2(O)[C@@H]2C=C(C)C(=O)[C@@]2(O)C1`, the results for the Activity in the data set listed under Mus musculus [2] and in the data set listed under Mus musculus [3] were 0.7 nmol⁻¹ and 1.5 nmol, respectively.

In the case of `C/C=C(/C)C(=O)O[C@@]12C[C@@H](C)[C@@]3(O)[C@@H](C=C(COC(C)=O)C[C@]4(O)C(=O)C(C)=C[C@@H]34)[C@@H]1[C@@]2(C)COC(=O)C(C)CC` (some centres not stated), the Activity in the data set listed under Mus musculus [2] amounted to 0.4 nmol⁻¹; in the data set filed under Mus musculus [3], 2.4 nmol.

For `C/C=C(\C)C(=O)O[C@@H]1[C@@H]2[C@H]([C@H](OC(=O)/C(C)=C/C)[C@H](OC(C)=O)/C(C)=C/[C@@]34O[C@@]3(C[C@H](C)[C@@H]4OC(C)=O)C(=O)[C@@H]1C)C2(C)C`, the Activity in the data set listed under Mus musculus [1] was more than 1000 µg.

As for `C/C=C(\C)C(=O)O[C@H]1[C@H]2[C@@H]([C@@H](O)[C@@H](C)C(=O)[C@@]34C[C@H](C)[C@H](OC(C)=O)[C@]3(/C=C(\C)[C@H]1OC(=O)C(C)CC)O4)C2(C)C` (some centres not stated), the Activity in the data set filed under Mus musculus [1] is more than 1000 µg.

With `C/C=C(/C)C(=O)O[C@@]12C[C@@H](C)[C@@]3(O)[C@@H](C=C(COC(C)=O)C[C@]4(O)C(=O)C(C)=C[C@@H]34)[C@@H]1[C@@]2(C)COC(=O)C(C)C`, the Activity in the data set listed under Mus musculus [2] amounted to 1.1 nmol⁻¹; in the data set listed under Mus musculus [3], 0.91 nmol.

For `C/C=C(\C)C(=O)O[C@@H]1[C@@H]2[C@H]([C@H](OC(=O)/C(C)=C/C)[C@H](OC(C)=O)/C(C)=C/[C@@]34O[C@@]3(C[C@H](C)[C@@H]4O)C(=O)[C@@H]1C)C2(C)C`, the Activity in the data set listed under Mus musculus [1] is more than 1000 µg.

Take `C/C=C(\C)C(=O)O[C@@H]1[C@@H]2[C@H]([C@H](OC(C)=O)[C@H](OC(C)=O)/C(C)=C/[C@@]34O[C@@]3(C[C@H](C)[C@@H]4OC(C)=O)C(=O)[C@@H]1C)C2(C)C`: in the data set filed under Mus musculus [1], the Activity was more than 1000 µg.

Take `CCC(C)C(=O)O[C@@]12C[C@@H](C)[C@@]3(O)[C@@H](C=C(CO)C[C@]4(O)C(=O)C(C)=C[C@@H]34)[C@@H]1C2(C)C` (some centres not stated): the Activity was 1.2 nmol⁻¹ in the data set listed under Mus musculus [2] and 0.83 nmol in the data set filed under Mus musculus [3].

`CCC(C)C(=O)O[C@@]12C[C@@H](C)[C@@]3(O)[C@@H](C=C(COC(C)=O)C[C@]4(O)C(=O)C(C)=C[C@@H]34)[C@@H]1C2(C)C` (some centres not stated): the Activity in the data set filed under Mus musculus [2] was determined as 0.7 nmol⁻¹; in the data set filed under Mus musculus [3], 1.5 nmol.

As to `CC1=C[C@H]2[C@@]3(O)[C@H](C)C[C@]4(OC(=O)C(C)C)[C@H]([C@@H]3C=C(CO)C[C@]2(O)C1=O)C4(C)C`, the Activity in the data set filed under Mus musculus [2] is 1.9 nmol⁻¹; in the data set filed under Mus musculus [3], 0.53 nmol.

As for `CCCCCCCCCCCCCC(=O)O[C@@H]1[C@@H](C)[C@@]2(O)[C@@H](C=C(CO)C[C@]3(O)C(=O)C(C)=C[C@@H]23)[C@@H]2C(C)(C)[C@]12OC(C)=O` [PHORBOL MYRISTATE ACETATE], the results for the Activity in the data set listed under Mus musculus [2], in the data set filed under Mus musculus [1] and in the data set listed under Mus musculus [3] were 63 nmol⁻¹, 0.05 µg and 0.016 nmol, respectively.

Consider `CC(=O)O[C@@]12C[C@@H](C)[C@@]3(O)[C@@H](C=C(CO)C[C@]4(O)C(=O)C(C)=C[C@@H]34)[C@@H]1C2(C)C` [PROSTRATIN], for which, in the data set filed under Mus musculus [1], the Activity is given as more than 7 nmol.

The values above are taken from ChEMBL document CHEMBL1151117, “Irritant principles of the spurge family (Euphorbiaceae). XIII. Oligocyclic and macrocyclic diterpene esters from latices of some Euphorbia species utilized as source plants of honey” (J Nat Prod, 1988).
